# Activity calls are given as the source filed them. No cut-off for these calls is given here.
# Columns and labels:
# 3T3-L1 [1] = assay: Antidiabetic activity in mouse 3T3L1 preadipocytes assessed as increase in triglycerides level at 5 uM up to 3 days by ORO staining based microscopic method; format: functional, cell-based
# 3T3-L1 [2] = assay: Antidiabetic activity in mouse 3T3L1 preadipocytes assessed as increase in triglycerides level at 5 uM after 3 to 6 days by ORO staining based microscopic method; format: functional, cell-based
# 3T3-L1 [3] = assay: Antidiabetic activity in mouse 3T3L1 preadipocytes assessed as increase in triglycerides level at 1 to 5 uM after 6 days by ORO staining based microscopic method; format: functional, cell-based
# 3T3-L1 [4] = assay: Antidiabetic activity in mouse 3T3L1 preadipocytes assessed as increase in triglycerides level at 5 uM after 6 days; format: functional, cell-based
# 3T3-L1 [5] = assay: Cytotoxicity against mouse 3T3L1 preadipocytes assessed as reduction in cell viability at 50 uM; format: cell-based; conditions: 3t3-l1, 50 µM
# 3T3-L1 [6] = assay: Antidiabetic activity in mouse 3T3L1 preadipocytes assessed as increase in triglycerides level after 6 days; format: functional, cell-based; conditions: 3T3-L1, 144 h
# [7] = target: T1, Peroxisome proliferator-activated receptor gamma (Mus musculus) (UniProt P37238); assay: Agonist activity at PPARgamma in mouse 3T3L1 preadipocytes assessed as increase in FABP4 mRNA expression at 5 uM after 6 days by RT-PCR analysis; format: cell-based; conditions: 3T3-L1
# T1 sequence (whole entry): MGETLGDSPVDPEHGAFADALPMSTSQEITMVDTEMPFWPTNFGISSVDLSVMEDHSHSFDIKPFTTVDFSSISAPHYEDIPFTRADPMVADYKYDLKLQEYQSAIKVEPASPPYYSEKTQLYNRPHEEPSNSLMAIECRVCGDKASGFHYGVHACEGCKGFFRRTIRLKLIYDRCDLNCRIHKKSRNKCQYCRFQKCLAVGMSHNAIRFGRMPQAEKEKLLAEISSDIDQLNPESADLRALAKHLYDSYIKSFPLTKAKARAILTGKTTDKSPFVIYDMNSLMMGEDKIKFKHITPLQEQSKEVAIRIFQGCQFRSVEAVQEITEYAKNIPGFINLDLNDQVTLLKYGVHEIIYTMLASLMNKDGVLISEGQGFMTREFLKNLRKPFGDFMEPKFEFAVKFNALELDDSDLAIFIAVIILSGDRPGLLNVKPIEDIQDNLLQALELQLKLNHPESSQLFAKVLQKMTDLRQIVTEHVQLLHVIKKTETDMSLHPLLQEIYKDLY
# [8] = target: T1, Peroxisome proliferator-activated receptor gamma (Mus musculus); assay: Agonist activity at PPARgamma in mouse 3T3L1 preadipocytes assessed as increase in SCD-1 mRNA expression at 5 uM after 6 days by RT-PCR analysis; format: cell-based; conditions: 3T3-L1
# [9] = target: T1, Peroxisome proliferator-activated receptor gamma (Mus musculus); assay: Agonist activity at PPARgamma in mouse 3T3L1 preadipocytes assessed as increase in LXRalpha mRNA expression at 5 uM after 6 days by RT-PCR analysis; format: cell-based; conditions: 3T3-L1
# [10] = target: T1, Peroxisome proliferator-activated receptor gamma (Mus musculus); assay: Agonist activity at PPARgamma in mouse 3T3L1 preadipocytes assessed as increase in PPARgamma mRNA expression at 5 uM after 6 days by RT-PCR analysis; format: cell-based; conditions: 3T3-L1
# 3T3-L1 [11] = assay: Antidiabetic activity in mouse 3T3L1 preadipocytes assessed as increase in triglycerides level at 5 uM after 6 days in presence of GW9662; format: functional, cell-based
# [12] = target: T1, Peroxisome proliferator-activated receptor gamma (Mus musculus); assay: Agonist activity at PPARgamma in mouse 3T3L1 preadipocytes assessed as increase in C/EBPalpha mRNA expression at 5 uM after 6 days by RT-PCR analysis; format: cell-based; conditions: 3T3-L1
# 3T3-L1 [13] = assay: Antidiabetic activity in mouse 3T3L1 preadipocytes assessed as increase in triglycerides level at 5 uM after 6 days in presence of T0070907; format: functional, cell-based
# [14] = target: T1, Peroxisome proliferator-activated receptor gamma (Mus musculus); assay: Agonist activity at PPARgamma in mouse 3T3L1 preadipocytes assessed as increase in AMPKalpha mRNA expression at 5 uM after 6 days by RT-PCR analysis; format: cell-based; conditions: 3T3-L1
Compound,Activity (3T3-L1 [1]),Activity (3T3-L1 [2]),Activity (3T3-L1 [3]),Activity (3T3-L1 [4]),Activity (3T3-L1 [5]),EC50 (3T3-L1 [6]),Activity [7],Activity [8],Activity [9],Activity [10],Activity (3T3-L1 [11]),Activity [12],Activity (3T3-L1 [13]),Activity [14]
CC(C)=C1NC(=O)[C@@H](C[C@]2(O)c3ccccc3N3C(=O)C(C)(C)N[C@H]32)n2c1nc1ccccc1c2=O,Active,Active,Active,Active,Non-Toxic,2.34 µM,–,–,–,–,–,–,–,–
CC(C)=C1NC(=O)[C@@H](C[C@]2(O)c3ccccc3N3C(=O)[C@H](C(C)C)N[C@H]32)n2c1nc1ccccc1c2=O,Active,Active,Active,Active,Non-Toxic,0.36 µM,Active,Active,Active,Active,inactive,Active,inactive,Active
CN(CCOc1ccc(CC2SC(=O)NC2=O)cc1)c1ccccn1 (stereo unspecified) [ROSIGLITAZONE],–,–,–,–,–,0.12 µM,–,–,–,–,–,–,–,–
C/C=C1\NC(=O)[C@@H](Cc2c[nH]c3ccccc23)n2c1nc1ccccc1c2=O,Active,Active,Active,Active,Non-Toxic,1.03 µM,–,–,–,–,–,–,–,–
CC[C@@H]1N[C@@H]2N(C1=O)c1ccccc1[C@@]2(O)C[C@@H]1C(=O)NC(=C(C)C)c2nc3ccccc3c(=O)n21,Active,Active,Active,Active,Non-Toxic,0.27 µM,Active,Active,Active,Active,inactive,Active,inactive,Active

# Source: ChEMBL document CHEMBL4610073, “Potential Antidiabetic Fumiquinazoline Alkaloids from the Marine-Derived Fungus Scedosporium apiospermum F41-1” (J Nat Prod, 2020)
